Experimental data published in patent US20100137315A1, “Sphingosine Kinase Inhibitors and Methods of Their Use” (APOGEE BIOTECHNOLOGY CORPORATION, priority 2005, published 2010).

How the values were obtained:
female DBA/1 mice = assay: Collagen-Induced Arthritis model; type: in vivo, mouse; conditions: 50 mg/kg orally
Procedure: FIG. 10. Effects of Compound 8 on disease progression in the collagen-induced arthritis (CIA) model in mice. Female DBA/1 mice were injected with collagen, boosted after 3 weeks and then monitored for symptoms of arthritis. Upon disease manifestation, groups of mice were treated for 12 days as follows: (▴) Compound 8 (50 mg/kg given orally each day for 6 days per week); or (▪) vehicle (PEG400 given under the same schedule). On the indicated Day of treatment, the average clinical score (A) and the average hind paw diameter (B) was determined. * p<0.05 versus PEG400 alone group.
The anti-arthritis activities of the SK inhibitor Compound 8 were assessed in the Collagen-Induced Arthritis model. Female DBA/1 mice were injected subcutaneously in the tail with chicken immunization-grade type II collagen emulsified in complete Freund's adjuvant at 2 mg/mL. Three weeks later, the mice received a collagen booster in incomplete Freund's adjuvant and were monitored daily thereafter for arthritic symptoms. Once mice reached a threshold paw thickness and clinical score, they were randomized into the following treatment groups: Compound 8 (50 mg/kg given orally each day for 6 days per week) or vehicle (Polyethyleneglycol 400 given under the same schedule). The severity of disease in each animal was quantified by measurement of the hind paw volume with digital calipers. Each paw was scored based upon perceived inflammatory activity, in which each paw receives a score of 0-3 as follows: 0=normal; 1=mild, but definite redness and swelling of the ankle or wrist, or apparent redness and swelling limited to individual digits, regardless of the number of affected digits; 2=moderate redness and swelling of the ankle and wrist and 3=severe redness and swelling of the entire paw including digits, with an overall score ranging from 0-12. Differences among treatment groups were tested using ANOVA.
On Day 12, the mice were euthanized and their hind limbs were removed, stripped of skin and muscle, formalin-fixed, decalcified and paraffin-embedded. The limbs were then sectioned and stained with hematoxylin/eosin. Tibiotarsal joints were evaluated histologically for severity of inflammation and synovial hyperplasia.

[1] = test system: IEC6 rat intestinal epithelial cells; assay: TNFα-induced PGE2 production (Cox-2 activity), ELISA; type: cell-based; conditions: 100 ng TNFα/mL, 18 hours, 10 μg/mL compound
Procedure: (§1) FIG. 3. Inhibition of TNFα-induced Cox-2 activity by Compound 8. Rat IEC6 cells (Panel A) or human endothelial cells (Panel B) were incubated for 18 hours with dimethylsulfoxide (DMSO) as a solvent control, or 100 ng of TNFα/mL in the presence of DMSO or 10 μg/mL of Compound 8. Levels of PGE2 secreted into the medium were quantified by ELISA. Values represent the mean±sd for triplicate samples in a typical experiment.
(§2) To determine the effects of the SK inhibitors on Cox-2 activity, an ELISA assay was used to measure PGE2 production by IEC6 rat intestinal epithelial cells and human endothelial cells treated with TNFα.

human endothelial cells = assay: as above; type: cell-based; conditions: 100 ng TNFα/mL, 18 hours, 10 μg/mL compound
Procedure: as §1, §2

mice = assay: Chronic DSS-colitis model of IBD (35-day); type: in vivo, mouse
Procedure: FIG. 8. Effects of Compound 8 on the […] (DAI) in the chronic DSS-colitis model. Mice received 2 cycles (7 days per cycle) of DSS (1.5% cycle 1 and 1% cycle 2), 2 cycles of normal drinking water and were randomized by DAI on Day 28 into groups of 8 mice. The mice were then treated as follows: No DSS (▪)— normal drinking water and orally dosed with PEG400 every day for 7 days (water control); DSS alone (▴)— drinking water containing 1.5% DSS and orally dosed with PEG daily for 7 days; DSS+Compound 8 (▾)-drinking water containing 1.5% DSS and orally dosed with Compound 8 (50 mg/kg) every day for 7 days; DSS+Dipentum (♦)— drinking water containing 1.5% DSS and orally dosed with Dipentum (50 mg/kg). *p<0.001 versus No DSS group.
FIG. 9. Effects of Compound 8 on S1P levels in the colons of the animals in the chronic DSS-colitis model. Colon samples from mice described in FIG. 8 were extracted and assayed for the levels of S1P by LC/MS/MS. Values represent the mean±sd for 8 samples per group; * p<0.05 versus No DSS group.
A 35-day model of IBD was used to evaluate the effectiveness of the SK inhibitor in mice that experience multiple cycles of DSS-induced inflammation. This chronic model is similar to the acute model, except that the DSS concentration in the drinking water is lower and animals receive periodic exposure to DSS (DSS on days 1-7, water on Days 8-13, DSS on day 14-21, water on Days 22-27 and then DSS until the completion of the study on Day 35). In these experiments, treatment of the mice with an SK inhibitor or Dipentum began on Day 28 and continued daily until the completion of the study. The DAI index was monitored every other day until Day 28 and then daily until Day 35. Animals were sacrificed on Day 35, and changes in the colon length and cytokine profiles were measured.
As a final measure of the effects of the SK inhibitors in this chronic model, S1P levels were assayed in the colons of the DSS-treated animals using an LC-MS/MS method. […] Ratios of analyte to internal standard for each sphingolipid were determined. […]

CCCC(=O)Oc1ccc(C=CC(=O)Nc2nc(-c3ccc(Cl)cc3)cs2)cc1OC [Compound 8, Butyric acid 4-{2-[4-(4-chloro-phenyl)-thiazol-2-ylcarbamoyl]-vinyl}-2-methoxy-phenyl ester]
reduction in clinical score vs vehicle (female DBA/1 mice; 6 days per week, Day 12): 65% | reduction in the increase in hind paw thickness vs vehicle (female DBA/1 mice; 6 days per week, Day 12): 72% | histologic damage of tibiotarsal joints (female DBA/1 mice; Day 12): significantly reduced | inflammation response (Average Clinical Score, Average Hind Paw Diameter) (female DBA/1 mice; significant decreases beginning at Day 4): dramatically slowed | TNFα-induced Cox-2 activity (PGE2 production) [1]: strongly suppressed | TNFα-induced Cox-2 activity (PGE2 production) (human endothelial cells): strongly suppressed | colon length (mice; 50 mg/kg oral daily Days 28-35, Day 35): 5.8±0.1 cm | increase in DAI during third DSS exposure (mice; 50 mg/kg oral daily Days 28-35, P<0.001 on Day 35): significantly suppressed | S1P levels in colon (LC-MS/MS) (mice; oral 50 mg/kg daily, 7 days prior to sacrifice): significant reductions
